In US12152046B2, “Oleic acid derivatives, pharmaceutical composition or food composition comprising said oleic acid derivatives, and their uses” (UNIVERSITÉ DE BOURGOGNE, priority 2018, dated 2024):
Entries after “also recorded” stand apart in the source; their conditions may differ.

What was measured:
mouse taste bud cells = assay: Ca2+ signaling (Fura-2/AM, F340/F380) in mouse taste bud cells; type: cell-based; conditions: for fat taste receptor(s) through which the compound acts: Ca2+ signaling with SSO or AH7614; for increase in intracellular free calcium concentration [Ca2+]i (F340/F380): mouse taste bud cells loaded with Fura-2/AM
Procedure: The technique to isolate taste bud cells from mouse fungiform papillae has been described in the publication of El-Yassimi A, Hichami A, Besnard P, Khan N A. “Linoleic acid” induces calcium signaling, Src kinase phosphorylation, and neurotransmitter release in mouse CD36-positive gustatory cells”—J. Biol. Chem. 2008 May 9, 283(19), 12949-59.
Briefly, lingual epithelium was separated by enzymatic dissociation which contained the following: elastase and dispase mixture, 2 mg/ml each, in Tyrode's buffer (120 mM NaCl; 5 mM KCl; 10 mM HEPES ((4-(2-hydroxyethyl)-1-piperazineethanesulfonic acid); 1 mM CaCl2); 1 mM MgCl2; 10 mM glucose; 10 mM Na pyruvate, pH 7.4). The taste bud cells were isolated by incubating lingual epithelium in RPMI 1640 medium containing 2 mM EDTA, 1.2 mg/ml elastase, 0.6 mg/ml collagenase (type I), and 0.6 mg/ml trypsin inhibitor at 37° C. for 10 minutes, followed by centrifugation (600 g, 10 minutes). The cell populations, after separation, were suspended in fresh RPMI 1640 medium containing 10% fetal calf serum, 200 U/ml penicillin, and 0.2 mg/ml streptomycin, seeded onto a Poly-D-Lysine-coated dishes, and cultured for 24 hours. At the end of this period, the cells were used for the experiments or stained with trypan blue to assess their viability.
(§1) The mouse taste bud cells were seeded in 24-well plates (with glass bottom), containing poly-D-lysine for better adhesion to the surface. After 24 h, taste cells were incubated for 45 minutes with a fluorescent probe, Fura-2/AM (1 μM) in calcium buffer (110 mM NaCl, 5.4 mM, KCl, 25 mM, NaHCO3, 0.8 mM, MgCl2, 0.4 mM, KH2PO4, 20 mM, Hepes-Na, 0.33 mM, NaHPO4, 1.2 mM, CaCl2), pH 7.4). Then, the cells are washed with phosphate buffer saline (PBS) and taken up in calcium buffer.
The changes in intracellular Ca^2+ (F340/F380) were monitored under a Nikon microscope (TiU) by using an S Fluor 40× oil immersion objective.
(§2) Especially, the increases in [Ca^2+]i were measured as follows: the mice taste bud cells were cultured on Willico-Dish wells with a glass bottom and loaded with a fluorescent probe, Fura-2/AM. The changes in intracellular Ca^2+ (F340/F380) were monitored under the Nikon microscope (TiU) by using S-fluor 40× oil immersion objective. The planes were taken at Z intervals of 0.3 μm, and NIS-Elements software was used to deconvolve the images. The microscope was equipped with EM-CCD (Lucas) camera for real time recording of 16-bit digital images. The dual excitation fluorescence imaging system was used for studies of individual cells. The changes in intracellular Ca^2+ were expressed as ΔRatio, which was calculated as the difference between the peak F340/F380 ratio. The data were summarized from the large number of individual cells (20-40 cells in a single run, with 3-9 identical experiments done in at least three cell preparations). The results were analyzed with the NIS-elements software, the variation in [Ca^2+]i is expressed as A ratio (F340/F380) which was calculated with the difference of spectra at two wavelengths, i.e., 340 nm and 380 nm.

CD36 = biological target: T1, CD36 (Mus musculus, UniProt Q08857); assay: Ca2+ signaling in mouse taste bud cells in presence or absence of the CD36 inhibitor SSO; type: cell-based; conditions: for action of the CD36 inhibitor SSO on the increase in [Ca2+]i induced by the compound: 20 μM SSO, mouse taste bud cells, Fura-2/AM; for CD36 agonist character: concluded from suppression by SSO
T1 construct: freshly isolated and primary cultured mice type II taste bud cells (expressing GPR120 and CD36) are used; endogenous in cells; host or cells: primary mouse taste bud cells from fungiform papillae
T1 sequence (Q08857 whole entry): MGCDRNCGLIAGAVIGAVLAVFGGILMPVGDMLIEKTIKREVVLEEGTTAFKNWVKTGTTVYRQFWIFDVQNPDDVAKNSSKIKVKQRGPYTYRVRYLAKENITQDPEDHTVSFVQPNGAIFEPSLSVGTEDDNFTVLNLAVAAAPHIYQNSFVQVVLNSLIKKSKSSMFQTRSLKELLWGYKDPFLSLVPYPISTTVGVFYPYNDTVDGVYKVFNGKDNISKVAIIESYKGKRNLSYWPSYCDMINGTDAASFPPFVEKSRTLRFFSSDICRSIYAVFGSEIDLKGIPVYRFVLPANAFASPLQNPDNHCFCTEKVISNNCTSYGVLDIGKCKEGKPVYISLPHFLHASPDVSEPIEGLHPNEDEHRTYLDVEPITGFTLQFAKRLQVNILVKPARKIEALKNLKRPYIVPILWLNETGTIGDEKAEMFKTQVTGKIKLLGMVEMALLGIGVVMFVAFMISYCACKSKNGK
Procedure: as §1, §2
CD36: in order to assess if the oleic acid derivatives according to the invention exert their actions via CD36, the sulfo-N-succinimidyl oleate (SSO) was used. SSO is a CD36 inhibitor/blocker/antagonist.
Experiments were performed in the presence or absence of SSO with respect to calcium signaling to verify whether our analogs act well via this lipid receptor. Especially, for this assay with compounds 3a, 2a and oleic acid (control) were tested.

GPR120 = biological target: T2, GPR120 (Mus musculus, UniProt Q7TMA4); assay: Ca2+ signaling in mouse taste bud cells in presence or absence of the GPR120 antagonist AH7614; type: cell-based; conditions: AH7614 20 μM, compound at 50 μM, cells pre-incubated 15 minutes
T2 construct: freshly isolated and primary cultured mice type II taste bud cells (expressing GPR120 and CD36) are used; endogenous in cells; host or cells: primary mouse taste bud cells from fungiform papillae
T2 sequence (Q7TMA4 1-361): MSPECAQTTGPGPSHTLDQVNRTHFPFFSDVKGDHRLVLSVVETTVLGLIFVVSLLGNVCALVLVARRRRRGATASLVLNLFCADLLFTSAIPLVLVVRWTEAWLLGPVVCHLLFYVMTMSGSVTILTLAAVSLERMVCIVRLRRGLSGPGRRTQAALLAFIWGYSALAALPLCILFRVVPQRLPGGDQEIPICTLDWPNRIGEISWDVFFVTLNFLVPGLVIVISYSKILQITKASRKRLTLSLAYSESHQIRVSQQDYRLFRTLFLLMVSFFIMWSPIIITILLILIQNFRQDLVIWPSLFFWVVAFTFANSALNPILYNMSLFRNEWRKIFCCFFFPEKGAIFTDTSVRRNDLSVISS
Procedure: as §1
as §2, with “The microscope was equipped with EM-CCD (Lucas) camera for real time recording of 16-bit digital images.” left out, “The data were summarized from the large number of individual cells (20-40 cells in a single run, with 3-9 identical experiments done in at least three cell preparations).” left out, “nm. […]” for “nm.”

mice = assay: Two-bottle preference test; type: in vivo, mouse; conditions: for gustatory preference versus control solution (xanthan gum) / concentration preferred (optimal preference) in two-bottle preference test: 12 hours; for gustatory preference versus control solution (xanthan gum): 10 to 100 μM; for concentration preferred (optimal preference) in two-bottle preference test: versus xanthan gum control
Procedure: Eight weeks old, male mice (C57BI/6 black) were purchased from the “Janvier Elevage” (Le Mans) and used for these experiments.
The mice are placed individually in cages in a controlled environment (humidity and constant temperature) and have free access to a standard diet. 6 hours before the tests, the mice are deprived of water.
During the behavioral experiments, the mice were offered two bottles simultaneously for 12 hours (night period).
The mice are subjected to a choice between the “control” solution and the experimental solution (FIG. 4 and FIG. 5). • control solutions contain 0.3% xanthan gum, w/v, (Sigma Life Science, USA) in water to reproduce lipid texture and minimize bias due to differences in appearance between the two bottles; • the experimental solution contains, either the “test compound” according to the invention at a concentration varying from 10 to 100 μM (compound 3a, FIG. 4 or compound 2a, FIG. 5) or only xanthan gum at […] (control test). To avoid the preference for one side, the position of each bottle is changed during each test.
To estimate the consumption of control and experimental solutions, the bottles are weighed before and after each experiment. The mice are allowed to take rest for 48 hours between each experiment.

obese C57BL/6J mice = assay: Diet-induced obesity, body weight on high-fat diet; type: in vivo, mouse; conditions: for body weight in obese mice: HFD 28 weeks, analogue 75 μM in feeder bottles from 10th week, versus HFD only
Procedure: C57BL/6J male mice, aged between 6 to 10 weeks (16-20 g), were obtained from Janvier Labs (France). They were housed individually in a controlled environment with a 12 h light/dark cycle with food (SAFE, France) and water ad libitum. The palm oil (Huilerie Vigean, France) was the main fat component in high-fat diets. The high-fat diet was prepared weekly and stored at 4° C. until further use. The study was conducted as per Declaration of Helsinki and European ethical guidelines for the care and use of animals for experimentation. All the experimental protocols (protocol number: 16158) were approved by the Regional Ethical Committee of the University of Burgundy (Dijon, France).
The mice were grouped at random (n=10/group) and fed with either of the following diets: standard diet (STD) or high-fat diet (HFD). The body weight, food, and water intake were measured, weekly.
(§3) After 10 weeks of feeding the diets, obese animals were divided into two groups: one groups continued to be fed on the same HFD; however, another group was fed on the same diet and received either NKS-3 or NKS-5) until 28th of weeks of experimentation. At the end, the animals were sacrificed, under a fasting condition, and used for different analysis in blood and different tissues.
In order to elucidate the beneficial effects and especially during obesity, experiments were conducted on obese C57BL/6J mice. […] In order to test the curative/interventional effects on obesity, the animals were divided into two groups: one group that consumed only the high-fat diet (HFD) and the other consuming the same diet and also receiving 3a or 2a in ad libitum baby bottles/feeders. From the 10th week of the diet, we introduced lipid analogues into the bottles at 75 μM that corresponded to their preference in the double choice test. […] In addition, the decrease in obesity was maintained until the 28th week of feeding a HFD (FIGS. 6A and 6B). The study was stopped after the 28th week of the diet because the animals reached the age of 34 weeks and beyond that age, the aging factor may interfere with the growth.

C-reactive protein (CRP) = assay: CRP concentration in sera of obese mice; type: in vivo, mouse; conditions: obese mice on HFD, versus HFD only
Procedure: as §3
The CRP concentration was determined in sera by an automatic analyzer (Gilford Model 2000 system, a Beckman System T.R).

SMILES | fat taste receptor(s) through which the compound acts (mouse taste bud cells) | increase in intracellular free calcium concentration [Ca2+]i (F340/F380) (mouse taste bud cells) | action of the CD36 inhibitor SSO on the increase in [Ca2+]i induced by the compound (CD36) | CD36 agonist character (CD36) | effect of the GPR120 inhibitor AH7614 on the increase in [Ca2+]i induced by the compound (GPR120) | gustatory preference versus control solution (xanthan gum) (mice) | concentration preferred (optimal preference) in two-bottle preference test (mice) [µM] | body weight in obese mice (obese C57BL/6J mice) | anti-obesity effect, comparison of the two analogues (obese C57BL/6J mice; HFD, 75 μM in feeder bottles) | concentration of circulating CRP (C-reactive protein (CRP)) | action of the CD36 inhibitor SSO on the increase in [Ca2+]i induced by the compound (CD36; listed as OA) | concentration preferred in two-bottle preference test (mice) [mM]
CCCCCCCC/C=C\CCCCCCCC(=O)OCC1(C)COC1 [Compound 2a, (Z)-(3-methyloxetan-3-yl)methyl octadec-9-enoate] | bounds to CD36; also recorded: acts on both receptors CD36 and GPR120 | rapid and significant rise in calcium signaling; also recorded: huge increase | partially blocked; also recorded: curtailed, but not completely suppressed | partial agonist | significantly curtailed, but not suppressed | spontaneous preference | 75 | significant decrease in body weight | more powerful than 3a | significantly decreased |  | 
CCCCCCCC/C=C\CCCCCCCCP(=O)(OCC)OCC [Compound 3a, diethyl (Z)-octadec-9-en-1-yl phosphonate] | acts both to CD36 and GPR120 | rapid and significant rise in calcium signaling; also recorded: huge increase | completely blocked; also recorded: completely suppressed | complete CD36 agonist |  | spontaneous preference | 75 | significant decrease in body weight |  | significantly decreased |  | 
CCCCCCCC/C=C\CCCCCCCC(=O)O [oleic acid] |  | rapid and significant rise in calcium signaling |  |  |  |  |  |  |  |  | completely blocked; also recorded: partially blocked | 7.7
